Experimental data: PubChem BioAssay AID1918946 (Molecular Pharmacology Branch, DTP, NCI, 2023)

Tested on: 885512-296-R-J2-PDC complex spheroid viability
Assay: Anticancer human tumor 885512-296-R-J2-PDC patient-derived breast carcinoma cell line growth inhibition
Conditions: for IC50: curve of first compound; for viability, T/C: stronger effect = lower value
Method in brief: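 Complex spheroids of tumor cells with HUVEC and human MSCs, exposed to iadademstat combined with other agents. Each agent tested in half-log steps from near clinical Cmax (else 10 microM top), DMSO ≤0.25%.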

[1] = second compound 0.1 µM, first compound 0.00316 µM
[2] = second compound 0.1 µM, first compound 0.01 µM
[3] = second compound 0.1 µM, first compound 0.0316 µM
[4] = second compound 0.1 µM, first compound 0.1 µM
[5] = second compound 0.316 µM, first compound 0.00316 µM
[6] = second compound 0.316 µM, first compound 0.01 µM
[7] = second compound 0.316 µM, first compound 0.0316 µM
[8] = second compound 0.316 µM, first compound 0.1 µM
[9] = second compound 1 µM, first compound 0.00316 µM
[10] = second compound 1 µM, first compound 0.01 µM
[11] = second compound 1 µM, first compound 0.0316 µM
[12] = second compound 1 µM, first compound 0.1 µM
[13] = second compound 3.16 µM, first compound 0.00316 µM
[14] = second compound 3.16 µM, first compound 0.01 µM
[15] = second compound 3.16 µM, first compound 0.0316 µM
[16] = second compound 3.16 µM, first compound 0.1 µM
[17] = second compound 10 µM, first compound 0.00316 µM
[18] = second compound 10 µM, first compound 0.01 µM
[19] = second compound 10 µM, first compound 0.0316 µM
[20] = second compound 10 µM, first compound 0.1 µM
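Also: spheroids exposed to agents for 7 days before viability read.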

SMILES	IC50 (second compound 0.1 µM) [nM]	IC50 (second compound 0.316 µM) [nM]	IC50 (second compound 1 µM) [nM]	IC50 (second compound 3.16 µM) [nM]	IC50 (second compound 10 µM) [nM]	viability, T/C [1] [%]	viability, T/C [2] [%]	viability, T/C [3] [%]	viability, T/C [4] [%]	viability, T/C [5] [%]	viability, T/C [6] [%]	viability, T/C [7] [%]	viability, T/C [8] [%]	viability, T/C [9] [%]	viability, T/C [10] [%]	viability, T/C [11] [%]	viability, T/C [12] [%]	viability, T/C [13] [%]	viability, T/C [14] [%]	viability, T/C [15] [%]	further results
COc1cc(Nc2ncc3c(n2)-c2ccc(Cl)cc2C(c2c(F)cccc2OC)=NC3)ccc1C(=O)O + NC1CC1c1ccc(-c2cccc(O)c2)cc1	< 3.16	< 3.16	< 3.16	< 3.16	< 3.16	32	34	17.9	23.5	30.3	35.4	20.9	21.7	33.5	35.8	20.4	21.6	27	29.8	19.8	viability, T/C (second compound 0.1 µM, first compound 0.316 µM): 21.7%; viability, T/C (second compound 0.1 µM, first compound 1 µM): 20.1%; viability, T/C (second compound 0.316 µM, first compound 0.316 µM): 25.4%; viability, T/C (second compound 0.316 µM, first compound 1 µM): 19.1%; viability, T/C (second compound 1 µM, first compound 0.316 µM): 22.1%; viability, T/C (second compound 1 µM, first compound 1 µM): 19.6%; viability, T/C [16]: 13.2%; viability, T/C (second compound 3.16 µM, first compound 0.316 µM): 19.4%; viability, T/C (second compound 3.16 µM, first compound 1 µM): 15.4%; viability, T/C [17]: 15%; viability, T/C [18]: 20.2%; viability, T/C [19]: 14.2%; viability, T/C [20]: 8.64%; viability, T/C (second compound 10 µM, first compound 0.316 µM): 11.8%; viability, T/C (second compound 10 µM, first compound 1 µM): 12.7%
Cn1ncnc1C1c2n[nH]c(=O)c3cc(F)cc(c23)NC1c1ccc(F)cc1 (stereo not given) + NC1CC1c1ccc(-c2cccc(O)c2)cc1	55.1	51	41	28.1	15.5	98.7	86.2	63.6	35.8	97	89.2	64.3	30.3	101	86.3	53.7	32.3	94.2	77.4	46.7	viability, T/C (second compound 0.1 µM, first compound 0.000316 µM): 138%; viability, T/C (second compound 0.1 µM, first compound 0.001 µM): 114%; viability, T/C (second compound 0.316 µM, first compound 0.000316 µM): 112%; viability, T/C (second compound 0.316 µM, first compound 0.001 µM): 121%; viability, T/C (second compound 1 µM, first compound 0.000316 µM): 118%; viability, T/C (second compound 1 µM, first compound 0.001 µM): 114%; viability, T/C (second compound 3.16 µM, first compound 0.000316 µM): 105%; viability, T/C (second compound 3.16 µM, first compound 0.001 µM): 110%; viability, T/C [16]: 27.2%; viability, T/C (second compound 10 µM, first compound 0.000316 µM): 72.4%; viability, T/C (second compound 10 µM, first compound 0.001 µM): 80.2%; viability, T/C [17]: 70.5%; viability, T/C [18]: 55.5%; viability, T/C [19]: 39.1%; viability, T/C [20]: 20.5%
